The record followed here is patent US20200362302A1, “METHOD FOR PRODUCING CELL” (FUJIFILM Corporation, priority 2018, published 2020).

This test has as its system human iPS cells. Nature of the test: treatment efficiency by flow cytometry (positive percentage of CD75). In kind it is cell-based. As to the method:
The culture and the treatment were performed in the same manner as in Example 1 except that the treatment was performed under conditions in which a concentration of PD0325901 was 0.3 to 1.0 μmol/L, and subculture was performed for about 2 weeks after day 9. The completion of the treatment in Example 1 was evaluated by a positive percentage of a cell surface marker CD75. The cultured human iPS cells were detached with TrypLE™ Select, and stained with Alexa Fluor 647 Mouse Anti-Human CD75 antibody. A positive percentage of CD75 was analyzed by a flow cytometer Attune NxT.
Background: A flow cytometer gives signals particle by particle.

With `O=C(NOC[C@H](O)CO)c1ccc(F)c(F)c1Nc1ccc(I)cc1F` [PD0325901, N-[(2R)-2,3-dihydroxypropoxy]-3,4-difluoro-2-[(2-fluoro-4-iodophenyl)amino]-benzamide], the CD75 result (any of the cell lines, PD0325901 within the range of 0.3 to 0.5 μmol/L) is given as “not positive”. Besides, under “three lines of human iPS cells, PD0325901 at 0.3 to 1.0 μmol/L”, the “positive percentage of CD75” value is “increase in positive percentage of CD75”.
